Results taken from patent publication US20250262197A1, “COMPOUNDS AND METHODS FOR TREATING CHEMOTHERAPY-INDUCED PAIN” (priority 2024, published 2025).
Where two headings read alike, the source gives them in different places.

How the values were obtained:
[1] = system: oxaliplatin-induced peripheral neuropathy (cold allodynia); experiment: Repeated daily oral administration in rat model of oxaliplatin-induced peripheral neuropathy, cold allodynia, paw immersion test; assay type: in vivo, male Sprague-Dawley rats
Protocol: Cold allodynia is measured using the cryothermostat. See Singh, V. P., Kulkarni, S. K., “Effect of licofelone against mechanical hyperalgesia and cold allodynia in the rat model of incisional pain” Pharmacological Reports 2005(57):380-384.
Cold allodynia was measured using the paw immersion test. See Singh, supra. In this test, the latency of hindpaw withdrawal was measured after immersion of the hindpaw in the cryothermostat with a temperature fixed at 10° C. (±0.5° C.).
Duloxetine was used as a reference to validate the assay.
On D-3, latency of hindpaw withdrawal was measured on both paws using the cryothermostat to obtain a pre-induction and pre-treatment baseline. […] The first administration of vehicle and Compound A (groups 1 to 4) was done on D-3, then vehicle and Compound A were daily orally administered until D18 (n=22 repeated treatments). […] On the testing days (D4, D11, and D18), latency of hindpaw withdrawal was measured on both paws using the cryothermostat to obtain a baseline. Duloxetine was then orally administered at the same time as vehicle and Compound A at time T0. Sixty minutes later, the latency of hindpaw withdrawal was measured.
Vehicle (10% Ethanol/40% PEG 400/15% Tween 80 in sterile water) and Compound A were orally administered at 3 ml/kg. Duloxetine was orally administered at 10 ml/kg. Dosing and testing were performed in a random order by a blinded experimenter with the exception of sham animals and the duloxetine-treated group. Doses are expressed in terms of free active substance.
On D-3, the latency of hindpaw withdrawal was measured on both paws using the cryothermostat to obtain preinduction and pretreatment baselines.
The first administration of vehicle and Compound A (group 1 to 4) was done on D-3 then vehicle and Compound A were daily orally administered until D18 (n=22 repeated treatments).
On the testing days (D4, D11 and D18), latency of hindpaw withdrawal was measured on both paws using the cryothermostat (baseline) then duloxetine was orally administered at the same time than vehicle and Compound A (T0) and 60 minutes later, the latency of hindpaw withdrawal was measured.
Results were expressed as: 1) the paw withdrawal latency (mean±s.e.m.) in seconds for each group, calculated from individual paw withdrawal latency; and 2) the percentage of variation of the paw withdrawal latency calculated from the mean value of the vehicle-treated group. To determine a statistical effect of the test substance and the reference substance, data were analyzed by a non-parametrical test. The significance level was p<0.05.

[2] = system: oxaliplatin-induced peripheral neuropathy (cold allodynia); experiment: Single oral administration in rat model of oxaliplatin-induced peripheral neuropathy, cold allodynia, paw immersion test; assay type: in vivo, male Sprague-Dawley rats; conditions: for percentage of variation of the paw withdrawal latency as compared to the vehicle-treated group: p<0.05
Protocol: Cold allodynia is measured using the cryothermostat. See […]., “Effect of licofelone against mechanical hyperalgesia and cold allodynia in the rat model of incisional pain” Pharmacological Reports 2005(57):380-384. […] Cheng, X., et al., “Herbal Medicine AC591 Prevents oxaliplatin-Induced Peripheral Neuropathy in Animal Model and Cancer Patients” Frontiers in Pharmacology, 2017(8):344. This model is useful to evaluate the analgesic effects of new compounds on oxaliplatin-induced chronic painful symptoms. Cold allodynia was measured using the paw immersion test. See Singh, supra. In this test, the latency of hindpaw withdrawal was measured after immersion of the hindpaw in the cryothermostat with a temperature fixed at 10° C. (±0.5° C.). […] On day zero (D0), latency of hindpaw withdrawal was measured on both paws using the cryothermostat (Baseline pre-induction). […] Sixty minutes later, the latency of hindpaw withdrawal was measured on both paws using the cryothermostat. […] Doses are expressed in terms of free active substance. […] On D0, latency of hindpaw withdrawal was measured on both paws using the cryothermostat to obtain a preinduction baseline preinduction. […] Sixty minutes later, the latency of hindpaw withdrawal was measured on both paws using the cryothermostat. […] Rats were sacrificed at the end of the experiment by CO2 inhalation pending subsequent removal by a certified company. Results were expressed as: 1) the paw withdrawal latency (mean±s.e.m.) in seconds for each group, calculated from individual paw withdrawal latency; and 2) the percentage of variation of the paw withdrawal latency calculated from the mean value of the vehicle-treated group. To determine a statistical effect of the test substance and the reference substance, data were analyzed by a non-parametrical test. The significance level was p<0.05.

[3] = system: patients receiving oxaliplatin; conditions: cited from earlier work

## CC(C)C[C@](C)(N)COc1ccc(-c2ccnc(C(F)F)c2)nc1C(F)F [Compound A, ((S)-1-((2′,6-bis (difluoromethyl)-[2,4′-bipyridin]-5-yl)oxy)-2,4-dimethylpentan-2-aminiumdihydrogen phosphate]
[1]; daily oral administrations at 3 mg/kg
  increase in the paw withdrawal latency as compared to the vehicle-treated group: did not show a statistically significant increase
[1]; daily p.o. 30 mg/kg then 10 mg/kg, week 2, baseline (before the day's dose), ns
  percentage of variation of the paw withdrawal latency as compared to the vehicle-treated group: +25%
[1]; daily p.o. 30 mg/kg then 10 mg/kg, week 3, 60 minutes after the administration, vehicle 6.7±0.6 sec, p<0.05
  paw withdrawal latency (mean±s.e.m.): 10.2 ± 0.8 s
[1]; daily p.o. 30 mg/kg then 10 mg/kg, week 3, baseline (before the day's dose), p<0.05
  percentage of variation of the paw withdrawal latency as compared to the vehicle-treated group: +43%
[2]; 10 mg/kg p.o., 60 minutes post-treatment
  increase in paw withdrawal latency as compared to the vehicle-treated group: did not show a statistically significant increase
[2]; 30 mg/kg p.o., week 3, 60 minutes post-treatment
  percentage of variation of the paw withdrawal latency as compared to the vehicle-treated group: +35%

## CNCC[C@H](Oc1cccc2ccccc12)c1cccs1 [Duloxetine]
[1]; 100 mg/kg p.o. on testing day, week 2, 60 minutes after treatment, p<0.01
  percentage of variation of the paw withdrawal latency as compared to the vehicle-treated group: +33%
[1]; 100 mg/kg p.o. on testing day, week 3, 60 minutes after treatment, not significant
  increase in the paw withdrawal latency as compared to the pre-drug baseline of the corresponding group: +50%
[1]; 100 mg/kg p.o., week 3, 60 minutes after treatment, pre-drug baseline of the group 6.3±0.3 sec
  paw withdrawal latency (mean±s.e.m.): 9.4 ± 0.7 s
[2]; 100 mg/kg p.o., week 2, 60 minutes post-treatment
  percentage of variation of the paw withdrawal latency as compared to the vehicle-treated group: +42%
[2]; 100 mg/kg p.o., week 3, 60 minutes post-treatment
  percentage of variation of the paw withdrawal latency as compared to the vehicle-treated group: +74%

## O=C1[O][Pt]2([NH][C@@H]3CCCC[C@H]3[NH]2)[O]C1=O [oxaliplatin]
[3]; after one month of chemotherapy
  prevalence of CIPN in patients receiving oxaliplatin: approximately 68%
[3]; at six months or more
  prevalence of CIPN in patients receiving oxaliplatin: 30%
[3]; at three months
  prevalence of CIPN in patients receiving oxaliplatin: 60%
[3]; chronic neuropathic pain
  patients who took oxaliplatin reporting long-lasting neuropathic symptoms: Approximately 60%
